Entries after “also recorded” stand apart in the source; their conditions may differ.
Key:
LNCaP cells [1] = experiment: c-Cbl silencing in LNCaP cells, APE1/REF1 oxidative stress signal; type: cell-based, human; conditions: 48 hours of c-Cbl silencing, versus Ctrl and si-Ctrl
Protocol: (§1) A. c-Cbl expression upon a 24 hours treatment with 25 or 50 nM of hydrogen peroxide respectively, or with 10 or 30 μM of etoposide respectively. Expression of the anti-apoptotic Bcl-2 and c-IAP2 proteins and of the pro-apoptotic Bcl-2 family protein Bax is also shown. B. c-Cbl expression after 48 hours of c-Cbl silencing. Expression of APE1, which is indicative of oxidative stress, is shown compared with medium control (Ctrl) and with si-control (si-Ctrl).
LNCaP is a human cell line, derived from a prostatic hormone-dependent metastatic tumor. The cells were maintained in RPMI 1640 medium (Invitrogen), supplemented with 7.5% FCS, 20 μg/ml streptomycin, 20 U/ml nystatin. LNCaP were used between the passages 50-60. For western-blotting LNCaP cells were seeded in 10cm disk (22.10^5 cells) and 6 cm disk (8.10^5 cells) respectively, with 5 disks per condition. Cells were allowed to attach for 24H and treated with various concentrations of R1881 at day 0. All the cells, including the controls, were cultured in the presence of the same ethanol concentration. For H2O2 or etoposide treatment, LNCaP cells were cultured for 24 hours in the presence of known concentrations of H2O2 or etoposide. The RNA silencing was classically done in Optimen medium (Gibco) using lipofectamine 2000 following the manufacturer's instructions (Invitrogen). The c-Cbl RNAi was generated by Eurogentec. Its sequence is: […] […]

c-cbl [2] = experiment: Effectiveness of c-cbl iRNA on c-cbl; conditions: human, rat and mouse c-cbl
Text: (§2) The c-cbl IRNA was produced by Eurogentec and had the following sequences: 5′ […] 3′ (SEQ ID NO: 2) and 5′ […] 3′ (SEQ ID NO: 3). It is effective on human, rat and mouse c-cbl. It is ineffective on cbl-b.

cbl-b = experiment: Effectiveness of c-cbl iRNA on cbl-b
Text: as §2

[3] = tested on: c-Cbl KO and WT Mouse Embryonic Fibroblasts (MEF); experiment: Western blotting of apoptosis proteins in c-Cbl KO and WT MEFs treated with apoptotic inducers; type: cell-based; conditions: for XIAP expression, decrease relative to control level / c-IAP2 expression, decrease relative to control level: MEFs, apoptosis activation 24 hours (FIG. 3B)
Protocol: The western blotting (WB) experiments, immunohistochemistry (IHC) experiments and RT PCR experiments, with coamplification of the S 20 ribosomal gene, were carried out according to conventional methods already described in e.g. Omezzine et al. (2003, Biol. Reprod., 69: 752-760), Bozec et al. (2004, J. Endocr., 183: 79-90) and El Chami et al. (2005, J. Cell. Biol., 651-661).
(§3) The MEFs KO for c-cbl and the MEFs WT were cultured in DMEM, 10% FCS. The apoptosis inducers were used at a final concentration of 0.5 mM in case of H2O2, and at 10 μM in case of etoposide. The cells were tested for apoptosis 24 hours after treatment. The human prostate cancer lines were transfected with 125 nM of c-cbl IRNA for 6 hours, and were tested for quenching of c-cbl expression 24 or 48 hours after transfection. The treatment was the same with RAT1-MEN2A cells.
(§4) Each of them are known to involve different signaling routes, both leading to the mitochondrial pathway of apoptosis. Hydrogen peroxide activates C-Jun Kinase, whereas Etoposide blocks topoisomerase II causing dsDNA breaks and DNA-PK/p53 activation (DeYulia et al. 2005 Proc Natl Acad Sci USA 102:5044-9; Kamata and Hirata 1999 Cell Signal 11:1-14; Karpinich et al. 2002 J Biol Chem 277:16547-52).

[4] = tested on: c-Cbl KO and WT Mouse Embryonic Fibroblasts (MEF); experiment: Apoptotic cells (DAPI nuclear fragmentation, TUNEL) in c-Cbl KO and WT MEFs treated with H2O2 or Etoposide; type: cell-based; design: more apoptotic cells in KO than in WT MEF cultures: dose or concentration left out as unconfirmed; conditions: for more apoptotic cells in KO than in WT MEF cultures: average, 16 or 24 H
Protocol: as §3, with “The apoptosis inducers were used at a final concentration of 0.5 mM in case of H2O2, and at 10 μM in case of etoposide.” left out
as §4

LNCaP cells [5] = experiment: Protein expression in LNCaP cells cultured with hydrogen peroxide or etoposide; type: cell-based, human; conditions: 24 hours; for Bax protein expression: particularly upon etoposide treatment; for Bcl-2 expression / c-Cbl expression / c-IAP2 expression: versus absence of agent
Protocol: as §1
LNCaP is a human cell line, derived from a prostatic hormone-dependent metastatic tumor. The cells were maintained in RPMI 1640 medium (Invitrogen), supplemented with 7.5% FCS, 20 μg/ml streptomycin, 20 U/ml nystatin. LNCaP were used between the passages 50-60. For western-blotting LNCaP cells were seeded in 10cm disk (22.10^5 cells) and 6 cm disk (8.10^5 cells) respectively, with 5 disks per condition. Cells were allowed to attach for 24H and treated with various concentrations of R1881 at day 0. All the cells, including the controls, were cultured in the presence of the same ethanol concentration. For H2O2 or etoposide treatment, LNCaP cells were cultured for 24 hours in the presence of known concentrations of H2O2 or etoposide. The RNA silencing was classically done in Optimen medium (Gibco) using lipofectamine 2000 following the manufacturer's instructions (Invitrogen). The c-Cbl RNAi was generated by Eurogentec. Its sequence is: […] (SEQ ID NO: 2). The siRNA controls were purchased from Invitrogen : siRNA-A (sc-37007) and siRNA-B (sc-44230).

c-Cbl [6] = experiment: c-Cbl expression (Western blotting, RT-PCR) in prostate lobes of adult rats exposed to flutamide; type: in vivo, rat
c-Cbl [7] = experiment: In situ c-Cbl staining of rat prostate after flutamide treatment; type: in vivo; conditions: 10mg/kg/day, 96 H

impact on the number of living cells (c-Cbl [6]; doses 2 to 10 mg/kg/day) | integrity of the epithelium border (c-Cbl [7]) | Molecule | anti-APE1/REF1 signal (oxidative stress) (LNCaP cells [1]) | effectiveness on c-cbl (c-cbl [2]) | effectiveness on cbl-b (cbl-b) | cleaved caspase 3 expression ([3]; KO or WT MEFs, 24 hours) | XIAP expression, decrease relative to control level [3] | c-IAP2 expression, decrease relative to control level [3] | percentage of apoptotic cells ([4]; WT MEF cultures) [%] | more apoptotic cells in KO than in WT MEF cultures [4] [%] | percentage of apoptotic cells ([4]; c-Cbl KO MEF cultures) [%] | Bax protein expression (LNCaP cells [5]) | Bcl-2 expression (LNCaP cells [5]) | c-Cbl expression (LNCaP cells [5]) | c-IAP2 expression (LNCaP cells [5]) | activated caspase 3 expression increase ([3]; WT MEFs, 24 hours) | cleaved (activated) caspase 3 expression relative to control ([3]; c-Cbl KO MEFs, 24 hours) | sensitivity of c-cbl KO MEF cells versus WT MEF cells ([4]; TUNEL, FIG. 10) | c-Cbl expression (LNCaP cells [5]; listed as H202) | dose from which decreased c-cbl expression was observed (c-Cbl [6]; dose/effect experiments, rat ventral prostate) [mg/kg/day]
 |  | c-cbl IRNA: c-cbl iRNA produced by Eurogentec, sequences SEQ ID NO: 2 and SEQ ID NO: 3 (chain 1 GGGAAGGCUUCUAUUUGUU; chain 2 CUGUCCAUCUAGAGACAAA; listed as RNA, chemistry not given here) | slight decrease | effective | ineffective |  |  |  |  |  |  |  |  |  |  |  |  |  |  | 
 |  | COc1cc([C@@H]2c3cc4c(cc3[C@@H](O[C@@H]3O[C@@H]5CO[C@@H](C)O[C@H]5[C@H](O)[C@H]3O)[C@H]3COC(=O)[C@H]23)OCO4)cc(OC)c1O [Etoposide] |  |  |  | slight but not significant increase | around one/third | around one/third | 5.8 | 29 | 4 | increased | slightly less expressed | slightly less expressed; also recorded: decreased | slightly less expressed |  |  |  |  | 
 |  | OO [H2O2, Hydrogen peroxide] |  |  |  |  | around one/third | around one/third | 4.9 | 43 | 8.75 | increased | slightly less expressed | slightly less expressed | slightly less expressed | two times | three times and half | about twice | decreased | 
very weak impact | did not affect at all | CC(C)C(=O)Nc1ccc([N+](=O)[O-])c(C(F)(F)F)c1 [flutamide] |  |  |  |  |  |  |  |  |  |  |  |  |  |  |  |  |  | ≥ 2

— patent US20120076788A1, “C-CBL AND ANTAGONISTS THEREOF FOR THE TREATMENT AND DIAGNOSIS OF CANCER” (Centre National De La Recherche Scientifique (C.N.R.S.), priority 2009, published 2012)
